From ChEMBL document CHEMBL2413072, “Synthesis and in vitro anticancer studies of novel C-2 arylidene congeners of lantadenes” (2013)
Active and inactive are the calls of the source. The calls are words filed in the database; no cut-off is given here.

Legend:
Format in all cases: functional
NCI-H322M = experiment: Growth inhibition of human NCI-H322M cells by sulforhodamine B assay
HL-60(TB) [1] = experiment: Growth inhibition of human HL-60(TB) cells by sulforhodamine B assay
RXF 393 = experiment: Growth inhibition of human RXF393 cells assessed as growth inhibition at 10 uM by sulforhodamine B assay; settings: read-out: GI
HL-60(TB) [2] = experiment: Growth inhibition of human HL-60(TB) cells assessed as cell growth at 10 uM by sulforhodamine B assay; settings: read-out: Activity
CCRF-CEM = experiment: Growth inhibition of human CCRF-CEM cells assessed as cell growth at 10 uM by sulforhodamine B assay; settings: read-out: Activity
OVCAR-3 = experiment: Growth inhibition of human OVCAR3 cells assessed as growth inhibition at 10 uM by sulforhodamine B assay; settings: read-out: GI
SK-MEL-2 = experiment: Growth inhibition of human SK-MEL-2 cells assessed as growth inhibition at 10 uM by sulforhodamine B assay; settings: read-out: GI
SK-MEL-28 = experiment: Growth inhibition of human SK-MEL-28 cells assessed as growth inhibition at 10 uM by sulforhodamine B assay; settings: read-out: GI
SNB-19 = experiment: Growth inhibition of human SNB19 cells assessed as growth inhibition at 10 uM by sulforhodamine B assay
KM12 [3] = experiment: Growth inhibition of human KM12 cells assessed as growth inhibition at 10 uM by sulforhodamine B assay; settings: read-out: GI
[4] = Growth inhibition of human HCC2998 cells assessed as growth inhibition at 10 uM by sulforhodamine B assay; settings: HCC 2998, read-out: GI
HOP-92 = experiment: Growth inhibition of human HOP92 cells assessed as growth inhibition at 10 uM by sulforhodamine B assay
[5] = Growth inhibition of human EKVX cells assessed as growth inhibition at 10 uM by sulforhodamine B assay; settings: read-out: GI
A549 = experiment: Growth inhibition of human A549/ATCC cells assessed as growth inhibition at 10 uM by sulforhodamine B assay; settings: read-out: GI
BT-549 = experiment: Growth inhibition of human BT549 cells assessed as cell growth at 10 uM by sulforhodamine B assay; settings: read-out: Activity
PC-3 = experiment: Growth inhibition of human PC3 cells assessed as cell growth at 10 uM by sulforhodamine B assay; settings: read-out: Activity
TK-10 [6] = experiment: Growth inhibition of human TK10 cells assessed as cell growth at 10 uM by sulforhodamine B assay; settings: read-out: Activity
OVCAR-5 [7] = experiment: Growth inhibition of human OVCAR5 cells assessed as cell growth at 10 uM by sulforhodamine B assay; settings: read-out: Activity
MDA-MB-435 [8] = experiment: Growth inhibition of human MDA-MB-435 cells assessed as cell growth at 10 uM by sulforhodamine B assay; settings: read-out: Activity
LOX IMVI = experiment: Growth inhibition of human LOXIMVI cells assessed as cell growth at 10 uM by sulforhodamine B assay; settings: read-out: Activity
KM12 [9] = experiment: Growth inhibition of human KM12 cells assessed as cell growth at 10 uM by sulforhodamine B assay; settings: read-out: Activity
HCT-116 = experiment: Growth inhibition of human HCT116 cells assessed as cell growth at 10 uM by sulforhodamine B assay; settings: read-out: Activity
[10] = Growth inhibition of human EKVX cells assessed as cell growth at 10 uM by sulforhodamine B assay; settings: read-out: Activity
RPMI-8226 = experiment: Growth inhibition of human RPMI8226 cells assessed as cell growth at 10 uM by sulforhodamine B assay; settings: read-out: Activity
KM12 [11] = experiment: Growth inhibition of human KM12 cells assessed as cell growth at 10^-8 M by sulforhodamine B assay; settings: read-out: Activity
NCI-H460 = experiment: Growth inhibition of human NCI-H460 cells assessed as cell growth at 10^-8 M by sulforhodamine B assay; settings: read-out: Activity
TK-10 [12] = experiment: Growth inhibition of human TK10 cells by sulforhodamine B assay
[13] = Growth inhibition of human NCI-ADR-RES cells by sulforhodamine B assay
OVCAR-5 [14] = experiment: Growth inhibition of human OVCAR5 cells by sulforhodamine B assay
MDA-MB-435 [15] = experiment: Growth inhibition of human MDA-MB-435 cells by sulforhodamine B assay
SF-295 = experiment: Growth inhibition of human SF295 cells by sulforhodamine B assay
MOLT-4 [16] = experiment: Growth inhibition of human MOLT4 cells assessed as cell growth at 10^-4 M by sulforhodamine B assay; settings: read-out: Activity
[17] = Growth inhibition of human Hs 578T cells assessed as cell growth at 10^-6 M by sulforhodamine B assay; settings: read-out: Activity
NCI-H522 = experiment: Growth inhibition of human NCI-H522 cells assessed as cell growth at 10^-6 M by sulforhodamine B assay; settings: read-out: Activity
MOLT-4 [18] = experiment: Growth inhibition of human MOLT4 cells assessed as cell growth at 10^-6 M by sulforhodamine B assay; settings: read-out: Activity
UO-31 [19] = experiment: Growth inhibition of human UO31 cells assessed as cell growth at 10^-7 M by sulforhodamine B assay; settings: read-out: Activity
HCT-15 = experiment: Growth inhibition of human HCT15 cells assessed as cell growth at 10^-7 M by sulforhodamine B assay; settings: read-out: Activity
NCI-H23 = experiment: Growth inhibition of human NCI-H23 cells assessed as cell growth at 10^-7 M by sulforhodamine B assay; settings: read-out: Activity
DU-145 = experiment: Growth inhibition of human DU145 cells assessed as cell growth at 10^-8 M by sulforhodamine B assay; settings: read-out: Activity
UO-31 [20] = experiment: Growth inhibition of human UO31 cells assessed as cell growth at 10^-8 M by sulforhodamine B assay; settings: read-out: Activity
OVCAR-8 = experiment: Growth inhibition of human OVCAR8 cells assessed as cell growth at 10^-8 M by sulforhodamine B assay; settings: read-out: Activity
[21] = read-out: LC50 (the source's name)
[22] = read-out: pLC50 (the source's name) (converted)

SMILES: C/C=C(/C)C(=O)O[C@@H]1CC(C)(C)C[C@H]2C3=CC[C@@H]4[C@@]5(C)CC[C@H](O)C(C)(C)[C@@H]5CC[C@@]4(C)[C@]3(C)CC[C@@]12C(=O)O [Reduced Lantadene A]
- GI50 (NCI-H322M; read-out: GI50): 1.78 µM
- LC50 (50% lethal concentration) (NCI-H322M; read-out: LC50): 6.74 µM
- TGI (NCI-H322M; read-out: TGI): 3.46 µM
- GI50 (NCI-H322M; read-out: pGI50 (converted)): 1.78 µM
- LC50 (50% lethal concentration) (NCI-H322M; read-out: pLC50 (converted)): 6.76 µM
- TGI (NCI-H322M; read-out: pTGI (converted)): 3.47 µM
- GI50 (HL-60(TB) [1]; read-out: GI50): 2.19 µM
- CC50 (HL-60(TB) [1]; [21]): > 100 µM
- TGI (HL-60(TB) [1]; read-out: TGI): 4.9 µM
- GI50 (HL-60(TB) [1]; read-out: pGI50 (converted)): 2.19 µM
- CC50 (HL-60(TB) [1]; [22]): > 100 µM
- TGI (HL-60(TB) [1]; read-out: pTGI (converted)): 4.9 µM
- inhibition of growth at 10 µM (RXF 393): 77.2%
- growth at 10 µM (HL-60(TB) [2]): -50.8%
- growth at 10 µM (CCRF-CEM): 45.8%
- inhibition of growth at 10 µM (OVCAR-3): 68%
- inhibition of growth at 10 µM (SK-MEL-2): 45.9%
- inhibition of growth at 10 µM (SK-MEL-28): 66.3%
- growth inhibition (GI) (SNB-19): Active
- inhibition of growth at 10 µM (KM12 [3]): 78.3%
- inhibition of growth at 10 µM [4]: 73.6%
- growth inhibition (GI) (HOP-92): Active
- inhibition of growth at 10 µM [5]: 63.5%
- inhibition of growth at 10 µM (A549): 72.6%
- growth at 10 µM (BT-549): 26.1%
- growth at 10 µM (PC-3): 33.3%
- growth at 10 µM (TK-10 [6]): 66.8%
- growth at 10 µM (OVCAR-5 [7]): 64%
- growth at 10 µM (MDA-MB-435 [8]): 64.9%
- growth at 10 µM (LOX IMVI): 42.7%
- growth at 10 µM (KM12 [9]): 21.7%
- growth at 10 µM (HCT-116): 20%
- growth at 10 µM [10]: 36.5%
- growth at 10 µM (RPMI-8226): 21.1%
- growth at 0.01 µM (KM12 [11]): 104%
- growth at 0.01 µM (NCI-H460): 101%
- GI50 (TK-10 [12]; read-out: GI50): 2.25 µM
- CC50 (TK-10 [12]; [21]): 9.55 µM
- TGI (TK-10 [12]; read-out: TGI): 4.63 µM
- GI50 (TK-10 [12]; read-out: pGI50 (converted)): 2.24 µM
- CC50 (TK-10 [12]; [22]): 9.55 µM
- TGI (TK-10 [12]; read-out: pTGI (converted)): 4.68 µM
- GI50 ([13]; read-out: GI50): 2.17 µM
- CC50 [13, 21]: > 100 µM
- TGI ([13]; read-out: TGI): 5 µM
- GI50 ([13]; read-out: pGI50 (converted)): 2.19 µM
- CC50 [13, 22]: > 100 µM
- TGI ([13]; read-out: pTGI (converted)): 5.01 µM
- GI50 (OVCAR-5 [14]; read-out: GI50): 3.38 µM
- CC50 (OVCAR-5 [14]; [21]): 45.5 µM
- TGI (OVCAR-5 [14]; read-out: TGI): 8.9 µM
- GI50 (OVCAR-5 [14]; read-out: pGI50 (converted)): 3.39 µM
- CC50 (OVCAR-5 [14]; [22]): 45.7 µM
- TGI (OVCAR-5 [14]; read-out: pTGI (converted)): 8.91 µM
- GI50 (MDA-MB-435 [15]; read-out: GI50): 2.21 µM
- CC50 (MDA-MB-435 [15]; [21]): > 100 µM
- TGI (MDA-MB-435 [15]; read-out: TGI): 5.9 µM
- GI50 (MDA-MB-435 [15]; read-out: pGI50 (converted)): 2.19 µM
- CC50 (MDA-MB-435 [15]; [22]): > 100 µM
- TGI (MDA-MB-435 [15]; read-out: pTGI (converted)): 5.89 µM
- GI50 (SF-295; read-out: GI50): 1.62 µM
- CC50 (SF-295; [21]): 7.74 µM
- TGI (SF-295; read-out: TGI): 3.54 µM
- GI50 (SF-295; read-out: pGI50 (converted)): 1.62 µM
- CC50 (SF-295; [22]): 7.76 µM
- TGI (SF-295; read-out: pTGI (converted)): 3.55 µM
- growth at 100 µM (MOLT-4 [16]): -36%
- growth at 1 µM [17]: 92%
- growth at 1 µM (NCI-H522): 93%
- growth at 1 µM (MOLT-4 [18]): 89%
- growth at 0.1 µM (UO-31 [19]): 96%
- growth at 0.1 µM (HCT-15): 101%
- growth at 0.1 µM (NCI-H23): 99%
- growth at 0.01 µM (DU-145): 113%
- growth at 0.01 µM (UO-31 [20]): 93%
- growth at 0.01 µM (OVCAR-8): 98%
